Data as given in ChEMBL document CHEMBL1148667, “1,2,4-Oxadiazolidin-3,5-diones and 1,3,5-triazin-2,4,6-triones as cytosolic phospholipase A2alpha inhibitors” (Bioorg Med Chem Lett, 2006).
Activity calls are given as the source filed them. No cut-off for these calls is given here.

Key:
[1] = target: T1, Cytosolic phospholipase A2 (Homo sapiens, UniProt P47712); test: Inhibition of cPLA2-alpha by GLU micelle assay
T1 sequence (P47712 whole entry): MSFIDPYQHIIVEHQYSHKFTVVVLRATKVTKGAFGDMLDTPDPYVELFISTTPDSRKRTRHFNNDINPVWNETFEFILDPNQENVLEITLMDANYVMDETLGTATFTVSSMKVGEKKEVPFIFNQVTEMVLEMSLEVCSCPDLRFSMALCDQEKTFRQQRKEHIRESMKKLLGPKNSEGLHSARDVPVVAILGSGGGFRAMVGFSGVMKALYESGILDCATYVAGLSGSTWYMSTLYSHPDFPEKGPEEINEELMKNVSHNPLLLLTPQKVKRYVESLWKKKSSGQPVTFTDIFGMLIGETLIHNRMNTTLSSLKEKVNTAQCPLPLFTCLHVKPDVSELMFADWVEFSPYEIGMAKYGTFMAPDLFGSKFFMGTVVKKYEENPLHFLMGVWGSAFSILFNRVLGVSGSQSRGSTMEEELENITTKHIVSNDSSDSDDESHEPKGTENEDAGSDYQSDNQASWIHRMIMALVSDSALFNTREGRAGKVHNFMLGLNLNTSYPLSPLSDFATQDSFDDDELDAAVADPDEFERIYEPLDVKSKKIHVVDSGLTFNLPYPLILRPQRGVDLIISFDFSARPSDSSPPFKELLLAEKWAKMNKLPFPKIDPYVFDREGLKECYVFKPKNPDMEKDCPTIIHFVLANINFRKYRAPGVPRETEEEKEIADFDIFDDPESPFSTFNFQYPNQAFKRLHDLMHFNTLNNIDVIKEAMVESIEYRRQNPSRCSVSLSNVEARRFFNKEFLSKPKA

[2] = Inhibition of LTB4 production in MC9 cell line; format: functional, cell-based; settings: Mus musculus
[3] = Inhibition of PGF2-alpha production in MC9 cell line; format: functional, cell-based; settings: Mus musculus
MC9 = test: Inhibition of PGF2-alpha production in MC9 cell line in presence of arachidonic acid; format: functional, cell-based; settings: Mus musculus
[4] = Inhibition of ionophore-stimulated TXB2 production in rat whole blood; format: functional, tissue-based

Row | SMILES | IC50 [1] [µM] | further results
1 | O=C(O)c1ccc(OCCn2c(=O)on(CC(c3ccccc3)c3ccccc3)c2=O)cc1 | 6.7 | –
2 | O=C(O)c1ccc(OC/C=C/Cn2c(=O)n(Cc3ccccc3)c(=O)n(C(c3ccccc3)c3ccccc3)c2=O)cc1 | 1.3 | IC50 [2]: 0.5 µM; IC50 [3]: 0.8 µM; Activity (MC9): inactive; IC50 [4]: 5.2 µM
3 | C=CCn1c(=O)n(C/C=C/COc2ccc(C(=O)O)cc2)c(=O)n(C(c2ccccc2)c2ccccc2)c1=O | 1.3 | –
4 | O=C(O)c1ccc(OCCCCn2c(=O)on(CC(c3ccccc3)c3ccccc3)c2=O)cc1 | > 50 | –
5 | O=C(O)c1ccc(OCCCn2c(=O)on(CC(c3ccccc3)c3ccccc3)c2=O)cc1 | 12.4 | –
6 | O=C(O)c1ccc(OCCn2c(=O)n(Cc3ccccc3)c(=O)n(C(c3ccccc3)c3ccccc3)c2=O)cc1 | 3.5 | –
7 | O=C(O)c1ccc(OCCn2c(=O)n(Cc3ccccc3)c(=O)n(CC(c3ccccc3)c3ccccc3)c2=O)cc1 | 30 | –
8 | O=C(O)c1ccc(OC/C=C/Cn2c(=O)on(CC(c3ccccc3)c3ccccc3)c2=O)cc1 | > 50 | –
9 | O=C(O)c1ccc(OCCn2c(=O)on(C(Cc3ccccc3)Cc3ccccc3)c2=O)cc1 | > 50 | –

Now from value to molecule, other results behind:

Row | IC50 [1] [µM] | SMILES | further results
10 | 23 | O=C(O)c1ccc(OCC#CCn2c(=O)on(CC(c3ccccc3)c3ccccc3)c2=O)cc1 | –
11 | 7.5 | CCn1c(=O)n(CCOc2ccc(C(=O)O)cc2)c(=O)n(C(c2ccccc2)c2ccccc2)c1=O | –
12 | 5 | C=CCn1c(=O)n(CCOc2ccc(C(=O)O)cc2)c(=O)n(C(c2ccccc2)c2ccccc2)c1=O | –
13 | 27 | O=C(O)c1ccc(OCCn2c(=O)on(CC(c3ccccc3)c3ccccc3)c2=O)cc1O | –
14 | 1.6 | CCn1c(=O)n(C/C=C/COc2ccc(C(=O)O)cc2)c(=O)n(C(c2ccccc2)c2ccccc2)c1=O | –
15 | > 50 | O=C(O)c1ccc(OCCn2c(=O)n(-c3ccccc3)c(=O)n(C(c3ccccc3)c3ccccc3)c2=O)cc1 | –
16 | 5.6 | CCCCn1c(=O)n(CCOc2ccc(C(=O)O)cc2)c(=O)n(C(c2ccccc2)c2ccccc2)c1=O | –
17 | > 50 | O=C(O)c1ccc(OCCn2c(=O)on(C(c3ccccc3)c3ccccc3)c2=O)cc1 | –
18 | > 50 | O=C(O)c1cccc(OCCn2c(=O)on(CC(c3ccccc3)c3ccccc3)c2=O)c1 | –
19 | 2.4 | CCCCn1c(=O)n(C/C=C/COc2ccc(C(=O)O)cc2)c(=O)n(C(c2ccccc2)c2ccccc2)c1=O | –
